Experimental data as given in the supplement of paper PMC9938120.

Tests used:
Assay in all cases: drug sensitivity score (DSS3, normalised partial AUC of % inhibition dose-response) (DSS (score)); higher = more sensitive (stronger inhibition of viability); extreme values may be limits of the assay
FMOC25_1 = patient-derived low-grade serous ovarian cancer cells; details: 72 h; library: FO4B; assay format: 2D, 384-well, CellTiter-Glo
Procedure, shortened: (§1)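 Early-passage (under 10) patient-derived ovarian cancer cells were dispensed onto 384-well flat clear-bottom plates pre-plated with compounds at five concentrations spanning a 10,000-fold range, then incubated 72 h at 37 °C, 5% CO2. Viability was read with CellTiter-Glo, and the data were processed in Breeze. The drug sensitivity score is a partial area under the percent-inhibition dose-response curve divided by the log of the upper asymptote, with higher values meaning greater sensitivity.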

FMOC24 = patient-derived high-grade serous ovarian cancer cells; details: 72 h; library: FO5A; assay format: 2D, 384-well, CellTiter-Glo
Procedure, shortened: as §1

FMOC06 = patient-derived mucinous ovarian cancer cells; details: 72 h; library: FO5A; assay format: 2D, 384-well, CellTiter-Glo
Procedure, shortened: as §1

FMOC22 = patient-derived mucinous ovarian cancer cells; details: 72 h; library: FO5A; assay format: 2D, 384-well, CellTiter-Glo
Procedure, shortened: as §1

FMOC14 = patient-derived high-grade serous ovarian cancer cells; details: 72 h; library: FO5A; assay format: 2D, 384-well, CellTiter-Glo
Procedure, shortened: as §1

FMOC02_3 = patient-derived low-grade serous ovarian cancer cells; details: 72 h; library: FO5A; assay format: 2D, 384-well, CellTiter-Glo
Procedure, shortened: as §1

FMOC02_2 = patient-derived low-grade serous ovarian cancer cells; details: 72 h; library: FO5A; assay format: 2D, 384-well, CellTiter-Glo
Procedure, shortened: as §1

FMOC03 = patient-derived mucinous ovarian cancer cells; details: 72 h; library: FO5A; assay format: 2D, 384-well, CellTiter-Glo
Procedure, shortened: as §1

FMOC09 = patient-derived high-grade serous ovarian cancer cells; details: 72 h; library: FO5A; assay format: 2D, 384-well, CellTiter-Glo
Procedure, shortened: as §1

FMOC25_2 = patient-derived low-grade serous ovarian cancer cells; details: 72 h; library: FO5A; assay format: 2D, 384-well, CellTiter-Glo
Procedure, shortened: as §1

| Structure (SMILES) | drug sensitivity score (FMOC25_1) | drug sensitivity score (FMOC24) | drug sensitivity score (FMOC06) | drug sensitivity score (FMOC22) | drug sensitivity score (FMOC14) | drug sensitivity score (FMOC02_3) | drug sensitivity score (FMOC02_2) | drug sensitivity score (FMOC03) | drug sensitivity score (FMOC09) | drug sensitivity score (FMOC25_2) |
| --- | --- | --- | --- | --- | --- | --- | --- | --- | --- | --- |
| Cc1c(CN2CCN(C(=O)[C@H](C)O)CC2)sc2c(N3CCOCC3)nc(-c3cnc(N)nc3)nc12 [Apitolisib] | 18.1 | – | – | – | – | – | – | – | – | – |
| c1ccc2c(CCNc3ccc(Nc4ccncc4)cc3)c[nH]c2c1 [Serdemetan] | 3.4 | – | – | – | – | – | – | – | – | – |
| CNC(=O)c1ccc(N2C(=S)N(c3ccc(C#N)c(C(F)(F)F)c3)C(=O)C23CCC3)cc1F [RD162] | 0 | – | – | – | – | – | – | – | – | – |
| CC(C)NC(=O)COc1cccc(-c2nc(Nc3ccc4[nH]ncc4c3)c3ccccc3n2)c1 [SLx-2119] | 2.7 | – | – | – | – | – | – | – | – | – |
| COCC(=O)NC/C=C/c1ccc2ncnc(Nc3ccc(Oc4ccc(C)nc4)c(C)c3)c2c1 | 3.2 | – | – | – | – | – | – | – | – | – |
| O=C(Nc1ccc(-c2ccnc(Nc3ccc(N4CCOCC4)cc3)n2)cc1)C1CCCN1 (stereo unspecified) [XL019] | 0.5 | – | – | – | – | – | – | – | – | – |
| Cc1sc2c(c1C)C(c1ccc(Cl)cc1)=N[C@@H](CC(=O)Nc1ccc(O)cc1)c1nnc(C)n1-2 [OTX015] | 6.3 | – | – | – | – | – | – | – | – | – |
| CN(C)c1nc(N(C)C)nc(N(C)C)n1 [Altretamine] | 0 | – | – | – | – | – | – | – | – | – |
| COc1ccc(Cl)c(Nc2nc3ccccc3nc2NS(=O)(=O)c2cccc(NC(=O)C(C)(C)N)c2)c1 [Pilaralisib] | 2.2 | – | – | – | – | – | – | – | – | – |
| Cc1csc(-c2nnc(Nc3ccc(Oc4ncccc4-c4ccnc(N)n4)cc3)c3ccccc23)c1 [AMG-900] | 0.8 | – | – | – | – | – | – | – | – | – |
| Cn1nccc1Nc1nccc(-c2ccn([C@H](CO)c3ccc(Cl)c(F)c3)c(=O)c2)n1 [GDC-0994] | 6 | – | – | – | – | – | – | – | – | – |
| CCCNC(=O)Nc1ccc(Oc2ncnc3cc(OC)c(OC)cc23)cc1Cl [KRN-633] | 0 | – | – | – | – | – | – | – | – | – |
| CC(=O)c1cnc2ccc(-c3cc(Cl)c(O)c(Cl)c3)nc2c1N[C@H]1CC[C@H](CN(C)C)CC1 [OTSSP167] | 7.7 | – | – | – | – | – | – | – | – | – |
| Oc1ncc(N(CCCl)CCCl)c(O)n1 [Uramustine] | 0.1 | – | – | – | – | – | – | – | – | – |
| Cc1[nH]nc(C(F)(F)F)c1Cc1sc2c(c1C(=O)N1C[C@](C)(O)CO1)c(=O)n(C)c(=O)n2C(C)C [AZD3965] | – | 1.5 | 0 | 0 | 0 | 0.8 | 0 | 0 | 0 | 0 |
| CC(C)n1nc(-c2ccc3oc(N)nc3c2)c2c(N)ncnc21 [Sapanisertib] | – | 7.7 | 12.9 | 11.7 | 9.5 | 20.3 | 18.5 | 13.7 | 8.7 | 18.1 |
| COc1cc2c(Nc3ccc(Cl)c(Cl)c3F)ncnc2cc1OC[C@@H]1C[C@@H]2CN(C)C[C@@H]2C1 [Tesevatinib] | – | 2.4 | 4.4 | 2 | 6.5 | 21 | 20.6 | 18.9 | 16.3 | 18.5 |
| Cn1c(Nc2ccc(C(F)(F)F)cc2)nc2cc(Oc3ccnc(-c4ncc(C(F)(F)F)[nH]4)c3)ccc21 [NVP-RAF265] | – | 2 | 0.8 | 1.6 | 1.6 | 12.7 | 8 | 2 | 0 | 6.6 |
| CC(C)C[C@H](NC(=O)CNC(=O)c1cc(Cl)ccc1Cl)B(O)O [Ixazomib] | – | 16.8 | 12.1 | 16.6 | 15.3 | 6 | 14.3 | 15.1 | 6.8 | 14.5 |
| CC(C)(C)c1cc(NC(=O)Nc2ccc(Oc3ccnc4[nH]c(=O)cnc34)cc2F)n(-c2ccccc2)n1 | – | 1.6 | 3.6 | 3.8 | 0.1 | 7.1 | 0.2 | 5.3 | 3 | 17.8 |
| CN1CCN(C2CCC(n3cc(-c4ccc(Oc5ccccc5)cc4)c4c(N)ncnc43)CC2)CC1 (stereo unspecified) | – | 9.1 | 8.3 | 5.5 | 7.3 | 20 | 19.8 | 9.1 | 19.1 | 9.9 |
| CC(=O)c1cnc2ccc(-c3cc(Cl)c(O)c(Cl)c3)nc2c1N[C@H]1CC[C@H](CN(C)C)CC1 [OTS167] | – | 12.8 | 6.3 | 7.2 | 13 | 12.6 | 13.5 | 7.7 | 13.1 | 15.1 |
| C=CCn1c(=O)c2cnc(Nc3ccc(N4CCN(C)CC4)cc3)nc2n1-c1cccc(C(C)(C)O)n1 [AZD1775] | – | 8.15 | 8.5 | 6.9 | 14.6 | 17.5 | 10.8 | 6.1 | 7.9 | 15.2 |
| Cn1nccc1Nc1nccc(-c2ccn([C@H](CO)c3ccc(Cl)c(F)c3)c(=O)c2)n1 [Ravoxertinib] | – | 5.5 | 8.7 | 3.9 | 0 | 8.3 | 7.1 | 4.6 | 1.9 | 6.3 |
| C[C@@H]1COCCN1c1cc(C2([S@](C)(=N)=O)CC2)nc(-c2cc[nH]c3nccc2-3)n1 [AZD6738] | – | 8 | 6.9 | 7.4 | 10.7 | 11.1 | 7.8 | 5 | 7.7 | 12.5 |
| CO[C@@H](C)Cn1c(=O)n(C)c2cnc3ccc(-c4cncc(C(C)(C)O)c4)cc3c21 | – | 7.6 | 11 | 9.1 | 8.3 | 17 | 15.3 | 9.2 | 7.4 | 15.7 |
| CC1(C)OCCn2c1nc1c(N3CCOCC3)nc(-c3cnc(N)nc3)nc12 [GDC-0084] | – | 7.5 | 10.9 | 7.4 | 9.2 | 18.5 | 18.1 | 10.5 | 9.6 | 16.2 |
